Data from patent publication US20050197350A1, “Novel quinoline, tetrahydroquinazoline, and pyrimidine derivatives and methods of treatment related to the use thereof” (TAISHO PHARMACEUTICAL CO., LTD., priority 2003, published 2005).

test system: MCH receptors; assay: MCH receptor activity class (method not given); conditions: class by percent of control at 10^-7 M or IC50

| SMILES | class |
| --- | --- |
| CN(C)c1cc(N[C@H]2CC[C@@H](NC(=O)Nc3ccccc3Cl)CC2)nc2ccccc12 [compound 2089] | 2 (Class 2: The value of percent of control at 10^−7 M was from 40% to 60% or the value of IC′50 was from 50 nM to 200 nM.) |
| Cc1cccc(C)c1NC(=O)N[C@H]1CC[C@@H](Nc2cc(N(C)C)c3ccccc3n2)CC1 [compound 2090] | 3 (Class 3 The value of percent of control at 10^−7 M was more than 60% or the value of IC50 was more than 200 nM.) |
| CN(C)c1cc(N[C@H]2CC[C@@H](NC(=O)Nc3ccc(F)cc3F)CC2)nc2ccccc12 [compound 2091] | 3 (Class 3 The value of percent of control at 10^−7 M was more than 60% or the value of IC50 was more than 200 nM.) |
| CCc1cccc(C)c1NC(=O)N[C@H]1CC[C@@H](Nc2cc(N(C)C)c3ccccc3n2)CC1 [compound 2092, N-(cis-4-{[4-(dimethylamino)quinolin-2-yl]amino}cyclohexyl)-N′-(2-ethyl-6-methylphenyl)urea] | 2 (Class 2: The value of percent of control at 10^−7 M was from 40% to 60% or the value of IC′50 was from 50 nM to 200 nM.) |
| CN(C)c1cc(N[C@H]2CC[C@@H](NC(=O)Nc3ccc(F)cc3)CC2)nc2ccccc12 [compound 2094] | 3 (Class 3 The value of percent of control at 10^−7 M was more than 60% or the value of IC50 was more than 200 nM.) |
| CSc1ccc(NC(=O)N[C@H]2CC[C@@H](Nc3cc(N(C)C)c4ccccc4n3)CC2)cc1 [compound 2095] | 3 (Class 3 The value of percent of control at 10^−7 M was more than 60% or the value of IC50 was more than 200 nM.) |
| CN(C)c1cc(N[C@H]2CC[C@@H](NC(=O)Nc3ccccc3C(F)(F)F)CC2)nc2ccccc12 [compound 2096] | 3 (Class 3 The value of percent of control at 10^−7 M was more than 60% or the value of IC50 was more than 200 nM.) |
| Cc1cc(C)c(NC(=O)N[C@H]2CC[C@@H](Nc3cc(N(C)C)c4ccccc4n3)CC2)c(C)c1 [compound 2097, N-(cis-4-{[4-(dimethylamino)quinolin-2-yl]amino}cyclohexyl)-N′-mesitylurea] | 1 (Class 1: The value of percent of control at 10^−7 M was less than 40% or the value of IC50 was less than 50 nM.) |
| Cc1ccccc1NC(=O)N[C@H]1CC[C@@H](Nc2cc(N(C)C)c3ccccc3n2)CC1 [compound 2098] | 3 (Class 3 The value of percent of control at 10^−7 M was more than 60% or the value of IC50 was more than 200 nM.) |
| CN(C)c1cc(N[C@H]2CC[C@@H](NC(=O)Nc3c(Cl)cc(Cl)cc3Cl)CC2)nc2ccccc12 [compound 2099, N-(cis-4-{[4-(dimethylamino)quinolin-2-yl]amino}cyclohexyl)-N′-(2,4,6-trichlorophenyl)urea] | 2 (Class 2: The value of percent of control at 10^−7 M was from 40% to 60% or the value of IC′50 was from 50 nM to 200 nM.) |
| CN(C)c1cc(N[C@H]2CC[C@@H](NC(=O)Nc3c(F)cc(Br)cc3Br)CC2)nc2ccccc12 [compound 2101] | 2 (Class 2: The value of percent of control at 10^−7 M was from 40% to 60% or the value of IC′50 was from 50 nM to 200 nM.) |
| CCc1cccc(CC)c1NC(=O)N[C@H]1CC[C@@H](Nc2cc(N(C)C)c3ccccc3n2)CC1 [compound 2102] | 1 (Class 1: The value of percent of control at 10^−7 M was less than 40% or the value of IC50 was less than 50 nM.) |
| CN(C)c1cc(N[C@H]2CC[C@@H](NC(=O)Nc3c(Cl)cccc3C(F)(F)F)CC2)nc2ccccc12 [compound 2103] | 3 (Class 3 The value of percent of control at 10^−7 M was more than 60% or the value of IC50 was more than 200 nM.) |
| Cc1cccc(Cl)c1NC(=O)N[C@H]1CC[C@@H](Nc2cc(N(C)C)c3ccccc3n2)CC1 [compound 2104] | 3 (Class 3 The value of percent of control at 10^−7 M was more than 60% or the value of IC50 was more than 200 nM.) |
| CN(C)c1cc(N[C@H]2CC[C@@H](NC(=O)NCc3ccccc3Cl)CC2)nc2ccccc12 [compound 2105] | 2 (Class 2: The value of percent of control at 10^−7 M was from 40% to 60% or the value of IC′50 was from 50 nM to 200 nM.) |
| CCc1cccc(C(C)C)c1NC(=O)N[C@H]1CC[C@@H](Nc2cc(N(C)C)c3ccccc3n2)CC1 [compound 2106, N-(cis-4-{[4-(dimethylamino)quinolin-2-yl]amino}cyclohexyl)-N′-(2-ethyl-6-isopropylphenyl)urea] | 2 (Class 2: The value of percent of control at 10^−7 M was from 40% to 60% or the value of IC′50 was from 50 nM to 200 nM.) |
| CCc1ccccc1NC(=O)N[C@H]1CC[C@@H](Nc2cc(N(C)C)c3ccccc3n2)CC1 [compound 2107] | 3 (Class 3 The value of percent of control at 10^−7 M was more than 60% or the value of IC50 was more than 200 nM.) |
| CN(C)c1cc(N[C@H]2CC[C@@H](NC(=O)Nc3ccccc3I)CC2)nc2ccccc12 [compound 2108] | 3 (Class 3 The value of percent of control at 10^−7 M was more than 60% or the value of IC50 was more than 200 nM.) |
| Cc1cccc(C(C)C)c1NC(=O)N[C@H]1CC[C@@H](Nc2cc(N(C)C)c3ccccc3n2)CC1 [compound 2109, N-(cis-4-{[4-(dimethylamino)quinolin-2-yl]amino}cyclohexyl)-N′-(2-isopropyl-6-methylphenyl)urea] | 2 (Class 2: The value of percent of control at 10^−7 M was from 40% to 60% or the value of IC′50 was from 50 nM to 200 nM.) |

| SMILES | class |
| --- | --- |
| CC(C)c1ccccc1NC(=O)N[C@H]1CC[C@@H](Nc2cc(N(C)C)c3ccccc3n2)CC1 [compound 2110] | 3 (Class 3 The value of percent of control at 10^−7 M was more than 60% or the value of IC50 was more than 200 nM.) |
| Cc1c(NC(=O)N[C@H]2CC[C@@H](Nc3cc(N(C)C)c4ccccc4n3)CC2)cccc1[N+](=O)[O-] [compound 2111] | 3 (Class 3 The value of percent of control at 10^−7 M was more than 60% or the value of IC50 was more than 200 nM.) |
| CCCc1ccccc1NC(=O)N[C@H]1CC[C@@H](Nc2cc(N(C)C)c3ccccc3n2)CC1 [compound 2112] | 3 (Class 3 The value of percent of control at 10^−7 M was more than 60% or the value of IC50 was more than 200 nM.) |
| Cc1cccc(C(C)(C)C)c1NC(=O)N[C@H]1CC[C@@H](Nc2cc(N(C)C)c3ccccc3n2)CC1 [compound 2113, N-(2-tert-butyl-6-methylphenyl)-N′-(cis-4-{[4-(dimethylamino)quinolin-2-yl]amino}cyclohexyl)urea] | 1 (Class 1: The value of percent of control at 10^−7 M was less than 40% or the value of IC50 was less than 50 nM.) |
| CN(C)c1cc(N[C@H]2CC[C@@H](NC(=O)Nc3ccccc3C(C)(C)C)CC2)nc2ccccc12 [compound 2114] | 3 (Class 3 The value of percent of control at 10^−7 M was more than 60% or the value of IC50 was more than 200 nM.) |
| Cc1c(Cl)cccc1NC(=O)N[C@H]1CC[C@@H](Nc2cc(N(C)C)c3ccccc3n2)CC1 [compound 2115] | 3 (Class 3 The value of percent of control at 10^−7 M was more than 60% or the value of IC50 was more than 200 nM.) |
| CN(C)c1cc(N[C@H]2CC[C@@H](NC(=O)Nc3c(F)cc(Br)cc3F)CC2)nc2ccccc12 [compound 2116] | 3 (Class 3 The value of percent of control at 10^−7 M was more than 60% or the value of IC50 was more than 200 nM.) |
| CN(C)c1cc(N[C@H]2CC[C@@H](NC(=O)Nc3ccc(Cl)cc3C(F)(F)F)CC2)nc2ccccc12 [compound 2117] | 3 (Class 3 The value of percent of control at 10^−7 M was more than 60% or the value of IC50 was more than 200 nM.) |
| CN(C)c1cc(N[C@H]2CC[C@@H](NC(=O)Nc3ccc(C#N)cc3)CC2)nc2ccccc12 [compound 2118] | 3 (Class 3 The value of percent of control at 10^−7 M was more than 60% or the value of IC50 was more than 200 nM.) |
| CN(C)c1cc(N[C@H]2CC[C@@H](NC(=O)NC(c3ccccc3)c3ccccc3)CC2)nc2ccccc12 [compound 2119, N-(cis-4-{[4-(dimethylamino)quinolin-2-yl]amino}cyclohexyl)-N′-(diphenylmethyl)urea] | 2 (Class 2: The value of percent of control at 10^−7 M was from 40% to 60% or the value of IC′50 was from 50 nM to 200 nM.) |
| Cc1cc(Br)cc(C)c1NC(=O)N[C@H]1CC[C@@H](Nc2cc(N(C)C)c3ccccc3n2)CC1 [compound 2120] | 1 (Class 1: The value of percent of control at 10^−7 M was less than 40% or the value of IC50 was less than 50 nM.) |
| Cc1noc(-c2ccccc2)c1NC(=O)N[C@H]1CC[C@@H](Nc2cc(N(C)C)c3ccccc3n2)CC1 [compound 2121, N-(cis-4-{[4-(dimethylamino)quinolin-2-yl]amino}cyclohexyl)-N′-(3-methyl-5-phenylisoxazol-4-yl)urea] | 2 (Class 2: The value of percent of control at 10^−7 M was from 40% to 60% or the value of IC′50 was from 50 nM to 200 nM.) |
| Cc1cc(NC(=O)N[C@H]2CC[C@@H](Nc3cc(N(C)C)c4ccccc4n3)CC2)c(C(F)(F)F)o1 [compound 2122] | 3 (Class 3 The value of percent of control at 10^−7 M was more than 60% or the value of IC50 was more than 200 nM.) |
| CN(C)c1cc(N[C@H]2CC[C@@H](NC(=O)Nc3ccccc3Br)CC2)nc2ccccc12 [compound 2123] | 3 (Class 3 The value of percent of control at 10^−7 M was more than 60% or the value of IC50 was more than 200 nM.) |
| CN(C)c1cc(N[C@H]2CC[C@@H](NC(=O)Nc3ccccc3-c3ccccc3)CC2)nc2ccccc12 [compound 2124] | 3 (Class 3 The value of percent of control at 10^−7 M was more than 60% or the value of IC50 was more than 200 nM.) |
| CCCCNC(=O)N[C@H]1CC[C@@H](Nc2cc(N(C)C)c3ccccc3n2)CC1 [compound 2125] | 3 (Class 3 The value of percent of control at 10^−7 M was more than 60% or the value of IC50 was more than 200 nM.) |
| Cc1cccc(NC(=O)N[C@H]2CC[C@@H](Nc3cc(N(C)C)c4ccccc4n3)CC2)c1C [compound 2126] | 3 (Class 3 The value of percent of control at 10^−7 M was more than 60% or the value of IC50 was more than 200 nM.) |
| CCOC(=O)c1cccc(NC(=O)N[C@H]2CC[C@@H](Nc3cc(N(C)C)c4ccccc4n3)CC2)c1 [compound 2127] | 3 (Class 3 The value of percent of control at 10^−7 M was more than 60% or the value of IC50 was more than 200 nM.) |
| C=C(C)c1cccc(C(C)(C)NC(=O)N[C@H]2CC[C@@H](Nc3cc(N(C)C)c4ccccc4n3)CC2)c1 [compound 2128] | 3 (Class 3 The value of percent of control at 10^−7 M was more than 60% or the value of IC50 was more than 200 nM.) |
